Test results reported in patent US4912092A, “Methods for increasing extracellular adenosine and for stabilizing mast cells” (The Regents of the University of California, priority 1987, dated 1990).
“And” between values parts separate entries of the source, which are not always exact repeats. Equal values may be shown once.

What was measured:
arrhythmias = assay: Arrhythmias (PVD, VTAC) during ischemia in dogs; assay type: in vivo, dog
Description: Thirteen mongrel dogs were anesthetized with phenobarbital. […] C.V. Dis. 20; 55 (1977). […] Two of the surviving saline-treated animals fibrillated. […] The range was 4.4 to 100 μM.
One consequence of myocardial ischemia is arrhythmia and the frequency of arrhythmias is related to the degree of reduced blood flow. […] Electrocardiograms recorded during ischemia of Example III were analyzed for the number of premature ventricular depolarizations (PVD) and ventricular tachycardia (VTAC) episodes.

myocardial infarct = assay: Myocardial infarct size after tying off the left anterior descending coronary artery; assay type: in vivo, rat; conditions: bolus then osmotic mini-pump infusion, three weeks; p<0.05
Excerpt: The animals were continuously exposed by infusion of either AICA riboside in saline or saline using osmotic mini-pumps well known to those in the art. After three weeks, the rats were sacrificed and infarct size quantitated by planimarizing stained sections of fixed hearts.

[1] = test system: Mouse bone marrow-derived mast cells; assay type: cell-based; conditions: 100 micromolar, A23187 at 1 μg/ml; 28.8% in its absence
Description: By preventing mast cell degranulation, it is possible to prevent or control a patient's allergic response. Bone marrow obtained from Balb/C mice femurs was cultured in a 1:1 mixture of Razin media and conditioned media, produced by co-culturing splenocytes from C57B1/6J and C3H mice in the presence of Concanavalin A as described by Razin et al. in the Proc. Natl. Acad. Sci. USA 28: 2559-2561, 1981. After weekly passaging and at least 15 days in tissue culture, the resulting cells were 90% pure mast cells and 95% viable as assessed by Trypan blue exclusion. Cells exposed to ribavirin in culture were washed three times prior to use in experiments. Parallel cultures of cells grown in media alone were used as controls for pharmacologically manipulated mast cells. Cell growth was assessed by counting cells at particular time points and comparing actual numbers of ribavirin-treated cells to numbers of cells grown in media alone.
β-hexosaminidase was chosen as a representative granule-associated, preformed mast cell mediator because it is easily quantitated, and its release nearly identically parallels that of histamine. Mouse bone marrow-derived mast cells were centrifuged at 200×g for 5 minutes, washed three times in Tyrode's buffer lacking divalent cations, sensitized for 30 minutes at 37° C. with anti-DNP ([…]) IgE (1 μg/10^6 cells) and challenged with either DNP-BSA antigen (175 ng/3×10^5 cells) or A23187 (10 μg/ml/3×10^5 cells) in 400 μl of complete Tyrode's buffer for 10 minutes at 37° C. Reaction mixtures were centrifuged at 200×g for 10 minutes, and supernatant and pellet β-hexosaminidase concentrations were assayed by the hydrolysis of p-nitrophenyl-β-D-glucosamide as described in Schwartz et al. in J. Immunol. […] Spontaneous β-hexosaminidase release was determined in unchallenged cells. The net % of β-hexosaminidase released is defined as follows: [formula] where [β-hex] is β-hexosaminidase and super. is supernatant. When exogenous adenosine was present in reaction mixtures, it was added simultaneously with the secretagogue.

[2] = dog, in vivo, iv
Excerpt: Thirteen mongrel dogs were anesthetized with phenobarbital. […] C.V. Dis. 20; 55 (1977).

[3] = dogs 1-6 of the AICA riboside group

concentration [2]: 27.2 µM
SMILES: NC(=O)c1ncn([C@@H]2O[C@H](CO)[C@@H](O)[C@H]2O)c1N [AICA riboside, 5-amino-4-imidazolecarboxamide riboside]
VTAC, average (arrhythmias; average of six dogs, saline 18.2, p<0.01): 4.7 EPISODES/H | PVD, average (arrhythmias; average of six dogs, saline 112.2, p<0.01): 37.8 EPISODES/H | PVD, individual dogs (arrhythmias; [3]): 12 EPISODES/H and 10 EPISODES/H and 182 EPISODES/H and 4 EPISODES/H and 13 EPISODES/H and 6 EPISODES/H | VTAC, individual dogs (arrhythmias; [3]): 1 EPISODES/H and 0 EPISODES/H and 27 EPISODES/H | reduction of infarct size compared to saline-treated controls (myocardial infarct): 33% | hexosaminidase released [1]: 17.6%
